According to patent EP0400319A1, “4-(4'-Halophenyl)-2-methyl-1,2,3,4-tetrahydroisoquinolines and process for their preparation” (N I S PRI VCHTI, priority 1989, dated 1990):
Values joined by “and” are separate entries in the source; they are usually repeats but may differ in a detail not shown here. Equal entries are not always repeated. Structures can show the parent of a compound that is named as a salt.

Test system: durch Wasser-Immersionsstreß verursachte Magengeschwüre
Test: Water-immersion stress induced gastric ulcers in rats
Type: in vivo, Ratten
Settings: for Geschwürindex: 5 h water immersion; for Antiulkuswirkung im Vergleich zum Präparat Ranitidin: ratio of doses giving about 52% inhibition
Text: Untersucht wurde auch die Antiulkusaktivität der razemischen 1a- und 1b-Verbindungen auf ein experimentelles Modell von Wasser-Immersionsstreß verursachten Magengeschwüren bei Ratten (Tabelle 2). Das Vergleichspräparat war der H₂-Antagonist Ranitidin.
Bestimmung der inhibierenden Wirkung von 1a und 1b auf durch Wasser-Immersionsstreß verursachte Magengeschwüre bei Ratten
Die Versuche wurden mit 280 weißen männlichen Ratten der Rasse Wistar mit einem Gewicht von 150 bis 200 g nach der in K. Takadi, Y. Ischii, Arzneim. Forsch. Drug Res., 1967, 17, 1544, beschriebenen Methode durchgeführt. 18 h vor dem Versuch hungern die Tiere unter freiem Wasserzutritt. Die Versuchsverbindung wird oral verabreicht, worauf die Tiere unbeweglich und voneinander isoliert auf dem Rücken auf eine Unterlage gebunden werden. Man legt die Tiere bei 17-18°C ins Wasser und tötet sie nach 5 h. Die Mägen werden entnommen und die destruktiven Veränderungen makroskopisch bestimmt.

SMILES: CN1Cc2ccccc2C(c2ccc(Br)cc2)C1 (racemic) [1a, 4-(4′-Bromphenyl)-2-methyl-1,2,3,4-tetrahydroisochinolin Hydrochlorid]
- ED50 (Rattus norvegicus, 5 h, oral, Inhibierungsgrad 52% at this dose, read-out: durchschnittliche effektive Dosis): 0.5 mg/kg
- Dosis, bei der der Inhibierungsgrad ein Maximum erreicht (oral): 3 mg/kg
- Unterdrückung des Geschwürindex (oral, 0,050 mg/kg): 20,6%
- Geschwürindex (oral, 0,050 mg/kg): 69 ±18,2
- Unterdrückung des Geschwürindex (oral, 0,100 mg/kg): 48,9% and 48,3%
- Geschwürindex (oral, 0,100 mg/kg): 44,4 ± 9,66
- Unterdrückung des Geschwürindex (oral, 0,500 mg/kg): 52,1%
- Geschwürindex (oral, 0,500 mg/kg): 30,8 ±17,7
- Unterdrückung des Geschwürindex (oral, 1,000 mg/kg): 58,9%
- Geschwürindex (oral, 1,000 mg/kg): 35,7 ±14,2
- Unterdrückung des Geschwürindex (oral, 3,000 mg/kg): 70,3%
- Geschwürindex (oral, 3,000 mg/kg): 19,5 ±12,3
- Antiulkuswirkung im Vergleich zum Präparat Ranitidin (oral): 20 Mal

SMILES: CN1Cc2ccccc2C(c2ccc(F)cc2)C1 (racemic) [1b, 4-(4′-fluorphenyl)-2-methyl-1,2,3,4-tetrahydroisochinolin Hydrochlorid]
- Unterdrückung des Geschwürindex (oral, 1,000 mg/kg): 41,53%
- Geschwürindex (oral, 1,000 mg/kg): 38,5 ± 7,75
- Unterdrückung des Geschwürindex (oral, 3,000 mg/kg): 57,98%
- Geschwürindex (oral, 3,000 mg/kg): 27,66±12,73
- Antiulkuswirkung im Vergleich zum Präparat Ranitidin (oral): Ähnliche Ergebnisse

SMILES: CNC(=C[N+](=O)[O-])NCCSCc1ccc(CN(C)C)o1 [Ranitidin, reference compound]
- Unterdrückung des Geschwürindex (oral, 10 mg/kg): 46,98%
- Geschwürindex (oral, 10 mg/kg): 22,8
- Unterdrückung des Geschwürindex (oral, 30 mg/kg): 61,62%
- Geschwürindex (oral, 30 mg/kg): 17,0
- Unterdrückung des Geschwürindex (oral, 0,500 mg/kg): 27%
- Geschwürindex (oral, 0,500 mg/kg): 32,3
- Unterdrückung des Geschwürindex (oral, 1,000 mg/kg): 39,27%
- Geschwürindex (oral, 1,000 mg/kg): 26,9
- Unterdrückung des Geschwürindex (oral, 3,000 mg/kg): 35,89%
- Geschwürindex (oral, 3,000 mg/kg): 28,4
